We go through nine molecules from publication PMC9405135, “Tuning the Biological Activity of Camphorimine Complexes through Metal Selection” (Antibiotics, 2022).

Read-outs that look alike come from different tables or passages of the source.

As a reminder, the IC50 is the concentration at which inhibition is half-maximal.

In series [1] the test system is OVCAR3 cells. Description: MTT cytotoxicity, OVCAR3 ovarian cancer cells. The settings on record: for IC50: read-out: IC50 OVCAR3; for SI = selectivity index = IC50(HDF)/IC50(OVCAR3): HDF versus OVCAR3, 24 h.
A short description of series [2]: Reduction potential by cyclic voltammetry. Format: physicochemical. On the set-up: E1/2red (reduction potential, footnote d): reference not given here. The settings on record: Bu4NBF4/CH3CN electrolyte, ±10 mV; for Epred (reduction potential): versus SCE; for E1/2red (reduction potential, footnote d): half-wave potential, footnote d prints [28].
Series [3] concerns V79 fibroblasts. Description: MTT cytotoxicity, V79 normal fibroblasts. The settings on record: read-out: IC50 V79, 24 h incubation.
Series [4] concerns HDF fibroblasts. Description: MTT cytotoxicity, HDF normal fibroblasts. The conditions noted are these: read-out: IC50 HDF, 24 h incubation.
Series [5] has as its system A2780 cells. Description: MTT cytotoxicity, A2780 ovarian cancer cells. The settings on record: read-out: IC50 A2780, 24 h incubation.
The subject of series [6] is ΦX174 supercoiled DNA. Details: method as in PMID 31671298. The conditions noted are these: previously shown; cited from earlier work.
Series [7] deals with OVCAR3 cells. Description: Metal distribution in single cells by nuclear microscopy (PIXE). Format: cell-based, human. The settings on record: 1 at 45 μM 24 h, 9 at 30 μM 3 h. The protocol: The distribution of copper and gold in treated cells was inspected by nuclear microscopy, making use of the PIXE technique to map and assess elemental contents in single cells. The nuclear microscopy techniques offer several advantages, regarding relatively high spatial resolution and sensitivity for a wide range of elements with physiological roles and those with pharmaceutical interest, in whole cells, while preserving most of their in vivo conditions.
OVCAR3 cells (ca. 1 × 10^6) were prepared for nuclear microscopy experiments by seeding the cells on a 100 nm thick silicon nitride membrane (Silson Ltd., Southam, UK), contained in six-well plates, and incubated overnight as described previously. Cells were incubated with complexes 1 and 9 at concentrations corresponding to the IC50 (45 μM for 24 h and 30 μM for 3 h, respectively). After incubation, the cells were analyzed at the nuclear microscopy facility of the C2TN/IST with a 2.0 MeV proton beam focused down to 3 × 4 µm^2 dimensions. Images of the micro-distributions of Cu and Au in OVCAR3 cells, as well as minor and trace physiological elements (e.g., P, S, K, and Fe), were obtained using the PIXE multielemental technique. Images of whole OVCAR3 cells were taken with 30 × 30 µm^2 scan sizes. Acquisition of data imaging and spectral analysis was performed using OMDAQ 2007 (Oxford Microbeams Ltd., Oxford, UK).

For series [8], the system named is OVCAR3 cells. Briefly: Lipid peroxidation (MDA, TBARS) assay. Format: cell-based, human. The conditions noted are these: OVCAR3 cells treated 6 h; 1 at 100 μM, 5 at 50 μM, 9 at 20 μM; mean ± SD. The protocol: Measurement of MDA relies on the detection of thiobarbituric acid (TBA)-reactive compounds generated from the decomposition of lipid peroxidation products. This reaction, which takes place under acidic conditions at 95 °C, results in the formation of an MDA–TBA adduct that can be quantified by its absorbance at 532 nm. […] Additionally, the MDA levels induced by the complexes correlated with the levels of ROS, pointing the involvement of ROS production in the mechanism of action of complexes under study and, consequently, the peroxidation of the membrane lipids, as supported by the correlation between the production of ROS and the levels of lipid peroxides, particularly for complexes 5 and 9.
The malondialdehyde (MDA) content in lipid extracts of OVCAR3 cells was measured using a colorimetric kit (BioVision, Milpitas, CA, USA), a method that relies on the reaction with thiobarbituric acid (TBARS assay). Briefly, OVCAR3 cells (5 × 10^5 cells/2 mL medium) were seeded in six-well plates and left to adhere for 24 h. […] The resulting cell pellet was treated following the kit recommended protocol. […] Then, 200 μL aliquots were then taken and transferred to a 96-well plate for MDA quantification at 532 nm. […]

The test system of series [9] is ΦX174 supercoiled DNA. Briefly: Complex-DNA interaction, agarose gel electrophoretic mobility. Format: binding. The settings on record: 0.5-15 µM complex, 24 h at 37 °C. The protocol: Therefore, we focused our studies mostly on the silver (5 and 7) and gold complexes (8 and 9) having the monocamphor ligands ^1A and ^2A, respectively. Complex 1 was also included for comparison. We evaluated the complexes’ ability to interact with DNA, by visualizing in vitro conformational changes in ΦX174 supercoiled DNA using agarose gel electrophoresis assays.
The DNA binding activity of the metal complexes was assessed through their ability to alter the electrophoretic mobilities of the covalently closed circular (ccc) and open circular (oc) forms of ΦX174 supercoiled DNA as previously described. Briefly, a mixture containing 200 ng of ϕX174 DNA (Promega, Madison, WI, USA) and different concentrations of the metal complexes was prepared. After incubation for 24 h at 37 °C in the dark, the samples were run in a 0.8% agarose gel in TAE buffer for 3 h at 90 V. The gel obtained was then stained using a 3× GelRed® (Biotium, Fremont, CA, USA) solution in H2O and imaged in an AlphaImagerEP (Alpha Innotech, San Leandro, CA, USA).

The test system of series [10] is caspase-3/7 in OVCAR3 cells. Briefly: Caspase-3/7 activation (Caspase-Glo 3/7 assay). Format: cell-based, human. The settings on record: OVCAR3, 24 h, concentrations below IC50. On the procedure: Caspases are a family of cysteine proteases playing central roles in the regulation of cellular processes such as programmed cell death. Among them, caspase-3 and -7 are considered executioners of the apoptosis pathways. We investigated the possible activation of apoptotic events in OVCAR3 cells treated by camphorimine complexes 1, 5, and 9.
The activities of caspase-3 and -7 were assessed using the Caspase-Glo® 3/7 assay (Promega, Madison, WI, USA). The assay kit provides a proluminescent caspase-3/7 substrate (DEVD-aminoluciferin) and luciferase in a reagent optimized for caspase-3/7 activity, luciferase activity, and cell lysis. In the presence of caspase 3/7, this substrate is cleaved, and aminoluciferin is released and consumed by luciferase, which generates a luminescent signal proportional to the caspase activity present in the cells. The assay was carried out in a 96-well plate format with the OVCAR3 cells treated with complexes 1, 5, and 9 for 24 h at concentrations below their IC50 according to a previously described method. […] Results (mean ± SD) were expressed as relative luminescent units (RLU).

Series [11] concerns OVCAR3 cells. Description: Intracellular ROS detection by H2DCF-DA. The conditions noted are these: 1-4 at 10-100 µM, 5-9 at 0.1-50 µM, 1 h. Format: cell-based, human. On the procedure: The molecular probe dichlorodihydrofluorescein diacetate (H2DCF-DA) was used to assess the levels of ROS, e.g., hydrogen peroxide, hydroxyl radicals, and peroxynitrite, generated in response to the effect of the complexes. This compound suffers oxidation and produces a fluorescent compound (DCF) in the presence of ROS [31]. The induction of intracellular ROS by the compounds (metal precursors and copper, silver, and gold complexes) was analyzed at λexc. = 492 nm 517 nm emission using a Varioskan LUX scanning multimode reader (Thermo Fisher Scientific).
Intracellular ROS levels, mainly H2O2, were measured using dihydro-2′7′dichlorofluorescein diacetate (H2DCF-DA). This cell-permeable molecular probe is de-esterified within the cell and turns to highly fluorescent 2′,7′-dichlorofluorescin (DCF) upon oxidation with ROS. For the assays, OVCAR3 cells (2 × 10^4 cells /well) were seeded in 96-well plates and left to adhere overnight. The medium was then replaced with a solution of 10 μM H2DCF-DA in colorless DMEM (FluoroBrite™ DMEM, Gibco®, Waltham, MA, USA) and cells were incubated at 37 °C for 30 min. […] DCF fluorescence was measured using a Varioskan Lux multimode microplate reader (ThermoFisher Scientific, Waltham, MA, USA) at 492 nm excitation and 517 nm emission. Results of fluorescence were expressed as the fold change in fluorescence levels compared with controls.

Series [12] in a line: Complex stability in cellular medium by UV/Vis spectroscopy. The conditions noted are these: DMSO, DMEM with 1% DMSO, DMEM with 1% DMSO + 10% FBS; 48 h. Format: physicochemical. The protocol: The stability in cellular medium of the complexes was evaluated for 48 h, using UV/Vis spectroscopy. The absorption spectrum was recorded for each complex dissolved in (a) 100% DMSO, (b) colorless DMEM with 1% DMSO, and (c) colorless DMEM with 1% DMSO + 10% FBS [30]. […] As low concentrations were used in the biological studies, we expect that both the stability and the solubility were not impaired.

In series [13] the test system is OVCAR3 cells. Briefly: Superoxide generation (NBT assay). Format: cell-based, human. The settings on record: 1 at 50 and 100 µM, 5 at 20 and 50 µM, 9 at 10 and 20 µM. On the procedure: The ROS species superoxide (O2^•−) can be detected with NBT, a cell-permeant dye that can cross the cell membrane and be reduced by intracellular free radicals (superoxide anions) to form formazan particles, which can be detected as blue precipitates in the cells.
The nitro blue tetrazolium (NBT) assay was carried out adapting a previously described method. This assay was used to determine the ability of cells to produce superoxide anion upon treatment with the compounds. During the treatment, NBT is reduced by superoxide anion, resulting in dark-blue formazan particles. […] Then, the medium was discarded, and the blue formazan particles were dissolved in 200 μL of 90% DMSO (90% DMSO:10% NaOH 0.1 N with 0.1% SDS). The resulting NBT formazan was measured at 560 nm using a plate spectrophotometer.

On to `[Cl][Cu]` [CuCl, reference compound], for which, in series [1] (MTT, 24 h incubation), the IC50 was over 100 µM. Moreover, in [2], the “Epred (reduction potential)” value is −0.46 Volt.
For [CuCl2((OC10H14N)2C6H4-p)] [Complex 2], the “SI = selectivity index = IC50(HDF)/IC50(OVCAR3)” value in series [1] is listed as over 3. The IC50 in series [1] (MTT, 24 h incubation) was 37.6 ± 8.5 µM; in series [3] it was over 100 µM; in series [4], over 100 µM; in series [5], 49.5 ± 14 µM. Besides, the “E1/2red (reduction potential, footnote d)” value in [2] is reported as 0.48 ^d Volt.
Take “[{CuCl}3{(OC10H14N)2,μ-C6H4-p)}] [Complex 3]”: the “SI = selectivity index = IC50(HDF)/IC50(OVCAR3)” value in [1] was 1.3. The IC50 in series [1] (MTT, 24 h incubation) stood at 37.5 ± 7.7 µM; in [3], 44.9 ± 10 µM; in [4], 48.3 ± 27 µM; in series [5], 43.1 ± 9.1 µM. Moreover, the “E1/2red (reduction potential, footnote d)” value in [2] is −0.46 ^d Volt.
`N.N.[Cl][Pt][Cl]` [cisplatin, reference compound]: the IC50 in series [1] (MTT, 24 h incubation) was 13 ± 4.7 µM; in [5], 21 ± 5 µM. Moreover, the “interaction with DNA (change of electrophoretic mobility)” value in series [6] is “bind to DNA and induce extensive electrophoretic mobility changes in DNA”.
Regarding `CC(=O)[O-].[Ag+]` [Ag(CH3COO), silver acetate, reference compound], the IC50 in series [1] (MTT, 24 h incubation) amounted to 3.38 ± 2 µM. For the same molecule, the “Epred (reduction potential)” value in [2] was −0.043 Volt.
As to `[Cl][Cu][Cl]` [CuCl2, reference compound], the IC50 in [1] (MTT, 24 h incubation) is over 100 µM. Besides, the “E1/2red (reduction potential, footnote d)” value in [2] is 0.58 ^d Volt.
Regarding `O=[N+]([O-])[O-].[Ag+]` [Ag(NO3), silver nitrate, reference compound], in series [1], the IC50 came to 2.66 ± 1 µM. The “Epred (reduction potential)” value in series [2] is 0.18 Volt.
As to “[{CuCl}2{OC10H14N(C6H4NH2)}] [Complex 1]”, in [1], the “SI = selectivity index = IC50(HDF)/IC50(OVCAR3)” value was found to be 1.6. The IC50 in series [1] (MTT, 24 h incubation) was 72.4 ± 9.1 µM; in series [3] it was 34.5 ± 9.7 µM; in series [4], 116 ± 27 µM; in series [5], 45.6 ± 11 µM. In addition, the “cellular distribution of the metal” value in [7] is listed as “uncharacteristic map of copper distribution”. In addition, in [8], the “MDA (lipid peroxide content)” value was 290 ± 15 pmoles/10^6 Cells. The “interaction with DNA (change of electrophoretic mobility)” value in series [9] is on record as “none of them interacted significantly with DNA”. The caspase-3/7 activation entry in series [10] is given as “low caspase activation”. In addition, the “Epred (reduction potential)” value in series [2] is given as −0.49 Volt. Besides, in [11], the “production of ROS (H2DCF-DA, relative to untreated cells)” value is “followed a similar trend”. Besides, the “stability in cellular medium (UV/Vis spectra)” value in series [12] is listed as “slightly lower”. Besides, the “superoxide ROS levels (NBT reduction)” value in series [13] is recorded as “increased the ROS levels in a dose-dependent manner”.
Regarding “[CuCl2(OC10H14NC6H5)]·HCl·½H2O [Complex 4]”, the “SI = selectivity index = IC50(HDF)/IC50(OVCAR3)” value in series [1] was over 1. In addition, the IC50 in [1] (MTT, 24 h incubation) is 115 ± 25 µM; in series [3] it was over 100 µM; in [4] it was over 100 µM; in series [5], over 100 µM. In series [2], the “E1/2red (reduction potential, footnote d)” value is 0.47 ^d Volt.
